Key:
PANC-1 cells [1] = experiment: Immunocytochemistry for insulin, parental PANC-1 cells; type: cell-based, human; details: presence or absence of GLP-1
Method: Cells were cultured on monocoated chamber slides (Nalge Nunc International; Naperville, Ill.) in the presence of GLP-1 (10 nM), or vehicle, for 72 h.
For the detection of insulin, cells were washed and fixed with 3% paraformaldehyde for 4 h, at room temperature in PBS, solubilized with 0.1% (vol/vol) Triton X-100 in PBS for 5 min. Cells were then incubated sequentially with an anti-insulin antibody and a secondary antibody, as described by the manufacturer (Biomeda Corp.; Foster City, Calif.). The cells were examined using a Ziess Axiophoto microscope (New York, N.Y.).

PANC-1/IDX-1 cells [2] = experiment: RT-PCR of islet β-cell specific transcripts, PANC-1/IDX-1 cells; type: cell-based, human
Method: (§1) PANC-1 cells were transfected with a pcDNA3 construct (Invitrogen; Carlsbad, Calif.) harboring the wild-type full-length IDX-1 cDNA using LipoTAXI (Catalog N. 204110; Mammalian Transfection Kit, Stratagene; La Jolla, Calif.). Control cells were transfected with the vector alone. The selection of positive (i.e. transfected) cells was carried out by culturing the cells in the presence of 400 μg/ml of G418 sulfate (GN-04, Omega; Tarzana, Calif.).
(§2) After the treatment of ARIP and PANC-1 cells with GLP-1, Exendin-9, or vehicle, for the described length of time and the various doses, the culture medium was removed and the cells were washed (twice) with serum-free medium. Total RNA was isolated using the TRiazol-method (Gibco-BRL), and treated with DNase (Amplification Grade, GibcoBRL) in 20 mmol/l Tris-HCL (pH 8.4), 2 mmol/l MgCl2, and 50 mmol/l KCl to remove any traces of contaminating genomic DNA. RNA (2.5 μg) was then subjected to reverse transcription (RT reagents; Promega; Madison, Wis.). RT-PCR was undertaken in a volume of 50 μl of buffer containing 50 mmol/l KCl, 10 mmol/l Tris-HCl, 3.5 mmol/l MgCl2, 200 μmol/l each dNTPs, and 0.4 μmol/l each of sense and antisense primers to rat or human insulin (depending on the specific cell from which the RNA was extracted). Amplification was performed for 30 cycles at the denaturing temperature of 94° C. for 1 min, annealing temperature of 60° C. for 45 sec, and an extension temperature of 72° C. for 1 min. […] These included more irregular and variable cell shapes, with a cytoplasm less homogenous and “rougher” in appearance than control culture.
Treatment with GLP-1 induces the differentiation of ductal epithelial cells into insulin-producing cells. FIG. 2 illustrates a series of cell cultures grown with or without GLP-1 (10 nM) for 72 h. […] Preabsorption of the antibody with an excess of human recombinant insulin prevented the staining of insulin-positive GLP-1 treated cells (data not shown). While treatment with GLP-1 turned the majority of ARIP cells into […] For β-actin, the annealing temperature was raised to 64° C. for 1 min and gene-specific primers were used. For GLP-1-receptor (GLP-R) the annealing temperature used was 55° C. All other experimental conditions to amplify GLUT2, glucokinase, and GLP-R mRNAs were identical to those described for the amplification of insulin mRNA. RT and PCR conditions for human transcripts were identical to those described for rat mRNAs.
Southern blotting with species-specific full length cDNA probes for insulin, GLUT-2, glucokinase, GLP-1 receptor and β-actin was performed as previously described. Y. Wang, R. Perfetti, N. H. Greig, H. W. Holloway, K. A. DeOre, C. Montrose-Rafizadeh, D. Elahi, J. M. Egan, “Glucagon-like peptide-1 can reverse the age-related decline in glucose tolerance in rats.” J Clin Invest 99:2883-2889, 1997.

PANC-1/IDX-1 cells [3] = experiment: Morphological changes (hematoxylin and eosin), PANC-1/IDX-1 cells; type: cell-based, human; details: GLP-1 10 nM for 72 h
Method: as §1
(§3) Hematoxylin and eosin staining was employed, in some experiments, to show the morphological changes observed under the experimental conditions described below.

ARIP and PANC-1 cells = experiment: GLP-1 receptor (GLP-R) mRNA by cycle-titration RT-PCR; type: cell-based; details: GLP-1 10 nM for 72 h, transfected and non-transfected cells
Method: FIGS. 9A-C show GLP-1 receptor expression in ARIP and PANC-1 cells. ARIP and PANC-1 cells (transfected with human IDX-1, or solely with the neomycin resistant gene) were cultured in serum-free medium and treated with GLP-1 (10 nM), or vehicle alone, for 72 h. RT-PCR for GLP-R and β-actin was performed with a cycle-titration PCR (15, 20, 25, 30 PCR cycles) to assess the relative abundance of GLP-R transcript. Primers for both transcripts were added together in a single PCR-reaction for each individual sample. […] Each experiment was repeated four times, using RNA samples from independent cultures. The blots on the left represent one individual experiment, while the graphs on the right are the average of four independent experiments. The numeric values in the graphs represent the ratio of GLP-R mRNA to actin mRNA.
Treatment with GLP-1 induces the differentiation of ductal epithelial cells into insulin-producing cells. FIG. 2 illustrates a series of cell cultures grown with or without GLP-1 (10 nM) for 72 h. […] Preabsorption of the antibody with an excess of human recombinant insulin prevented the staining of insulin-positive GLP-1 treated cells (data not shown). While treatment with GLP-1 turned the majority of ARIP cells into glucokinase mRNAs, the same PCR conditions as described above were used in the presence of gene-specific primers. […]

ARIP cells = experiment: Morphological changes (hematoxylin and eosin), ARIP cells; type: cell-based, rat; details: GLP-1 10 nM for 72 h
Source text: as §3

PANC-1 cells [4] = experiment: RT-PCR of islet β-cell specific transcripts, parental PANC-1 cells; type: cell-based, human; details: GLP-1 10 nM for 96 h
Method: as §2
Treatment with GLP-1 induces the differentiation of ductal epithelial cells into insulin-producing cells. FIG. 2 illustrates a series of cell cultures grown with or without GLP-1 (10 nM) for 72 h. […]

PANC-1 cells [5] = experiment: Flow cytometric (FACS) analysis for insulin, parental PANC-1 cells; type: cell-based, human; details: presence or absence of GLP-1; equivalent to assay background
Method: For fluorescence-activated cells sorting (FACS) analysis, cells were cultured in the presence of GLP-1 (10 nM), or vehicle, for 72 h, then washed with cold PBS (pH 7.4; three times) and incubated overnight, on ice, in PBS with 2% paraformaldehyde. After centrifugation, the cell pellet was resuspended in 400 μl of cold 0.1% Triton diluted in FACS buffer (PBS with 2% FCS). After several centrifugation and washes, the cells were resuspended in the assay buffer with of 10 μl of fluorescent-conjugated insulin antibody (Cat N. FM205, FITC: Chromaprobe, Inc; Mountain View, Calif.), in the presence of 10 μl of blocking antibody (anti-mouse IgG; Organon Teknika-Cappel, West Chester, Pa.). Control samples were treated with PBS, without the primary antibody, and then incubated with an […] FITC-conjugated control antibody (murine IgG; Chromaprobe Inc., Mountain View, Calif.). Flow cytometric analysis was performed with a FACScan[R] cytometer, using the LYSYS II program, and by fluorescence microscopy, as is well known in the art. See, e.g., E. Elstner, M. Linker-Israeli, J. Le, T. Umiel, P. Michl, J. W. Said, L. Binderup, J. C. […]

glucagon-like peptide-1 [GLP-1]
insulin immunostaining (PANC-1 cells [1]): No positive insulin immunostaining | time of GLUT2 mRNA expression (PANC-1/IDX-1 cells [2]; GLP-1 10 nM): 24 h | time of earliest detection of insulin mRNA (PANC-1/IDX-1 cells [2]; GLP-1 10 nM): 48 h | time of glucokinase mRNA expression (PANC-1/IDX-1 cells [2]; GLP-1 10 nM): 72 h | GLP-1 dose at peak of insulin mRNA levels (PANC-1/IDX-1 cells [2]; data not shown): 10 nM | GLP-1 dose at plateau of insulin mRNA levels (PANC-1/IDX-1 cells [2]; data not shown): 20 nM | lowest dose of GLP-1 required to detect insulin mRNA (PANC-1/IDX-1 cells [2]; data not shown): 1 nM | morphological change: cell aggregation (PANC-1/IDX-1 cells [3]): further promoted the tendency of forming few-cells aggregates | morphological change: cell size (PANC-1/IDX-1 cells [3]): increase in the size of individual cells | effect on GLP-R mRNA levels (ARIP and PANC-1 cells): further modest increase (no-statistically significant) | morphological change (ARIP cells): promoted the aggregation of cells in small clusters | RT-PCR for insulin (PANC-1 cells [4]): consistently negative | cells containing insulin in the cytoplasm (PANC-1 cells [5]): 1.4%

Source: patent US6642003B2, “Human glucose-dependent insulin-secreting cell line” (Cedars-Sinai Medical Center, priority 2001, dated 2003)
